A word on the IC50: it is the concentration at which inhibition is half-maximal.

From patent US9000045B2, “CETP activity inhibitors” (Japan Tobacco Inc., priority 1997, dated 2015) come the findings set out here.

In assay [1] the target is T1, CETP (Homo sapiens, UniProt P11597).
T1 sequence (P11597 18-493): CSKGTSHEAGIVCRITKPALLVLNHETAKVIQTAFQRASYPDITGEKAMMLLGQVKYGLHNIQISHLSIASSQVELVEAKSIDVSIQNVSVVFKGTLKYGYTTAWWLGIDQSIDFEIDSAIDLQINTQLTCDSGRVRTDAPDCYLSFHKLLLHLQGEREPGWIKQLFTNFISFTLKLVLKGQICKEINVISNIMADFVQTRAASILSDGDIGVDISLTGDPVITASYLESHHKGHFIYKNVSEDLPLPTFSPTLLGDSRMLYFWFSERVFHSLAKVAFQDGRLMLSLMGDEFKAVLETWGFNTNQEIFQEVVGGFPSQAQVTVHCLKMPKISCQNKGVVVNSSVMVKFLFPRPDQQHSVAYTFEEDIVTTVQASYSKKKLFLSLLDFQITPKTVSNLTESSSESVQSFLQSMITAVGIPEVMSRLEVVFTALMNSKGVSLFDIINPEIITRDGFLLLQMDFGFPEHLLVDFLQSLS
Description: Ex vivo CETP activity inhibitory effect of plasma from transgenic mice. On the set-up: from tissue; host or cells: plasma of transgenic mice carrying the human CETP gene. The conditions noted are these: mouse, po, p.o., 6 hours after administration, transgenic mice with human CETP gene, read-out: CETP activity inhibitory rate in plasma from transgenic mouse. The method, then: Potassium bromide (KBr) was added to the plasma of healthy subjects (40 ml) to adjust specific gravity to d=1.125 g/ml. Density gradient centrifugation (227,000×g, 4° C., 17 hours) was conducted to obtain a fraction with specific gravity d>1.125 g/ml (HDL3 fraction). The fraction thus obtained was dialyzed against a PBS solution [10 mM Na2HPO4/10 mM NaH2PO4/0.15 M NaCl/1 mM EDTA (pH 7.4)]. Then, tritium-labeled cholesterol (10 nM) (50.3 Ci/mM) was dissolved in 95% ethanol and added gradually to the above HDL3 fraction under stirring. The solution was incubated for 18 hours at 37° C. [Tritium-labeled cholesterol was esterified by this procedure by the action of lecithin:cholesterol acyltransferase (LCAT) present on the surface of HDL3 and taken up into the interior of HDL3 as tritium-labeled cholesterylester ([^3H]CE)]. After incubation, KBr was added and specific gravity was adjusted to d=1.21 g/ml. Density gradient centrifugation (227,000×g, 4° C., 17 hours) was conducted and the fraction with d<1.21 g/ml was harvested. The fraction thus obtained was dialyzed against the above PBS solution to obtain HDL3 that took up [^3H]CE ([^3H]CE-HDL3, specific gravity: 1.125<d<1.21, specific activity: 101,000 dpm/nM), which served as donor lipoprotein.
Physiological saline (specific gravity d=1.006 g/ml) was layered upon the plasma of healthy subjects (100 ml). Density gradient centrifugation (227,000×g, 4° C., 4 hours) was conducted and the fraction with specific gravity d>1.006 g/ml was harvested. KBr was added to the fraction thus obtained to adjust specific gravity to d=1.063 g/ml and density gradient centrifugation (227,000×g, 4° C., 20 hours) was conducted to harvest the fraction with specific gravity […]. The thus-obtained fraction was dialyzed against the above PBS solution to obtain fractions containing IDL and LDL (specific gravity: 1.006<d<1.063), which served as acceptor lipoprotein.
Samples were suspended in a 0.5% methylcellulose solution and administered orally using a plastic probe to transgenic mice having introduced human CETP gene (hereafter referred to as mice; prepared using the method described in Japanese Patent Application No. Hei 8-130660), which had been fasted overnight. Blood was collected before administration, and 6 hours after administration CETP activity in the plasma was determined using the following method.
Donor lipoprotein ([^3H]CE-HDL3, containing 0.21 μg cholesterol) obtained in the above (1), acceptor lipoprotein obtained in the above (2) (containing 21 μg of cholesterol), and 0.9 μl of mice plasma were added to microtubes. A total volume was adjusted to 600 μl/tube with a TBS solution [10 mM Tris/0.15 M NaCl (pH 7.4)]. The microtubes were incubated for 15 hours at 37° C. or 4° C. Then, an ice-cooled TBS solution (400 μl/tube) and a 0.3% dextran sulfate solution (100 μl/tube) containing 0.15 M magnesium chloride were added to the microtubes and mixed well. After allowing the microtubes to stand for 30 minutes at 4° C., centrifugation (8,000 rpm, 4° C., 10 minutes) was carried out and radioactivity of the resulting supernatant (HDL fraction) was determined with a scintillation counter.

In assay [2] the target is T1, CETP. Nature of the assay: In vitro CETP activity inhibitory effect in whole plasma. On the set-up: Plasma containing [^3H]CE-HDL3 (600,000 dpm/ml) was prepared by adding donor lipoprotein obtained in the above (1) to plasma from healthy subjects; from tissue; host or cells: whole plasma of healthy subjects. Conditions: plasma from healthy subjects containing [3H]CE-HDL3, incubated 4 hours at 37° C.; read-out: CETP activity inhibition in whole plasma IC50. In kind it is biochemical. The method, boiled down: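 HDL3 was labelled with tritiated cholesterol (10 nM) for 18 h at 37° C in PBS with EDTA (pH 7.4). Test samples were in 1:1 N-methylpyrrolidone/PEG 400 and assayed in whole plasma. IC50 was calculated from % inhibition of CETP activity.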

Take `CC(=O)OC(C)(C)C(=O)Sc1ccccc1NC(=O)C1(CCC(C)C)CCCCC1` [Example 25-52]: in assay [1], the inhibition at 10 mg/kg is 19% and the inhibition at 30 mg/kg came to 40%. The IC50 in assay [2] worked out at 68 µM.

Consider `CCC(CC)CC1(C(=O)Nc2ccccc2SC(=O)COc2ccc(Cl)cc2)CCCCC1` [Example 63], for which the inhibition at 30 mg/kg in assay [1] was 43%. Also, the IC50 in assay [2] stood at 4 µM.

As for `CC(C)CCC1(C(=O)Nc2ccccc2SC(=O)C2CC2)CCCCC1` [Example 42], in assay [1], the inhibition at 10 mg/kg was 31% and the inhibition at 30 mg/kg was 38%. In addition, the IC50 in assay [2] came out at 9 µM.

Take `COc1ccc(NC(=O)Sc2ccccc2NC(=O)C2(CCC(C)C)CCCC2)cc1` [Example 25-107]: the inhibition at 30 mg/kg in assay [1] came to 22%. The half-inhibitory concentration (IC50) in assay [2] amounted to 11 µM.

On to `CC(C)CCC1(C(=O)Nc2ccccc2SC(=O)N(C(=O)Nc2ccccc2)c2ccccc2)CCCCC1` [Example 25-101], for which the inhibition at 30 mg/kg in assay [1] stood at 8%. The IC50 in assay [2] came out at 7 µM.

Regarding `CC(C)CCC1(C(=O)Nc2ccccc2SC(=O)C(C)(C)C)CCCC1` [Example 48], in assay [1], the inhibition at 30 mg/kg came to 31% and the inhibition at 100 mg/kg amounted to 50%. In addition, the IC50 in assay [2] stood at 49 µM.

With `CC(C)CCC1(C(=O)Nc2ccccc2SC(=O)Nc2ccccc2)CCCC1` [Example 25-106], the inhibition at 30 mg/kg in assay [1] amounted to 29%. Further, in assay [2], the IC50 was determined as 10 µM.

As for `CC(C)CCC1(C(=O)Nc2ccccc2SC(=O)c2ccccc2Cl)CCCCC1` [Example 25-49], the inhibition at 30 mg/kg in assay [1] was found to be 16%. The IC50 in assay [2] stood at 21 µM.

Regarding `CC(C)CCC1(C(=O)Nc2ccccc2S)CCCCC1` [Example 11, N-(2-mercaptophenyl)-1-isopentylcyclohexanecarboxamide], in assay [1], the inhibition at 10 mg/kg worked out at 27%, the inhibition at 30 mg/kg turned out to be 45% and the inhibition at 100 mg/kg was 57%. Moreover, the 50% inhibitory concentration (IC50) in assay [2] was 5 µM.

For the molecule `CC(C)CCC1(C(=O)Nc2cc(Cl)c(Cl)cc2SC(=O)NC(C)(C)C)CCCCC1` [Example 25-102], the inhibition at 100 mg/kg in assay [1] came to 9%. For the same molecule, in assay [2], the IC50 is 8 µM.

On to `CC(=O)Sc1ccccc1NC(=O)C1(CCC(C)C)CCCC1` [Example 49], for which the inhibition at 30 mg/kg in assay [1] came out at 29%. Further, in assay [2], the half-inhibitory concentration (IC50) is 6 µM.

For `Cc1cccc(NC(=O)C2(CCC(C)C)CCCCC2)c1S` [Example 23], the inhibition at 30 mg/kg in assay [1] stood at 18%.

For `CCC(CC)CC1(C(=O)Nc2ccccc2SC(=O)C2CCN(C(C)=O)CC2)CCCCC1` [Example 28, S[2-[1-(2-ethylbutyl)cyclohexanecarbonylamino)-phenyl]1-acetylpiperidine-4-thiocarboxylate], in assay [1], the inhibition at 30 mg/kg stood at 36%. For the same molecule, the concentration for half-maximal inhibition (IC50) in assay [2] is 6 µM.

As for `CC(C)CCC1(C(=O)Nc2ccc(F)cc2SC(=O)C(C)(C)C)CCCCC1` [Example 81], the inhibition at 30 mg/kg in assay [1] was found to be 10%. Moreover, the half-maximal inhibitory concentration (IC50) in assay [2] was 21 µM.

Regarding `CC(C)CCC1(C(=O)Nc2cc(Cl)ccc2SC(=O)C(C)(C)C)CCCCC1` [Example 76], the inhibition at 30 mg/kg in assay [1] was found to be 4%. Besides, the IC50 in assay [2] was 18 µM.

Turning to `CC(C)CCC1(C(=O)Nc2ccccc2SC(=O)CCl)CCCCC1` [Example 36], in assay [1], the inhibition at 30 mg/kg was determined as 19%. Besides, the half-maximal inhibitory concentration (IC50) in assay [2] was found to be 16 µM.

Regarding `CC(C)CCC1(C(=O)Nc2ccccc2SSc2ccccc2NC(=O)C2(CCC(C)C)CCCCC2)CCCCC1` [Example 8], the inhibition at 100 mg/kg in assay [1] turned out to be 25%. For the same molecule, in assay [2], the IC50 is 3 µM.

Take `CCC(CC)CC1(C(=O)Nc2ccccc2SC(=O)C(C)(C)O)CCCCC1` [Example 62]: the inhibition at 30 mg/kg in assay [1] amounted to 38%. In assay [2], the half-inhibitory concentration (IC50) is 4 µM.

As for `COc1ccccc1C(=O)Sc1ccccc1NC(=O)C1(CCC(C)C)CCCC1` [Example 25-63], in assay [1], the inhibition at 100 mg/kg came out at 25%. For the same molecule, the IC50 in assay [2] came out at 21 µM.

Regarding `CC(C)CCC1(C(=O)Nc2ccccc2SC(=O)C2(N)CCCCC2)CCCCC1` [Example 47], the inhibition at 30 mg/kg in assay [1] turned out to be 31%. In addition, the IC50 in assay [2] came to 6 µM.

`CC(C)CCC1(C(=O)Nc2ccccc2SC(=O)COc2ccc(Cl)cc2)CCCCC1` [Example 41]: in assay [1], the inhibition at 10 mg/kg worked out at 27% and the inhibition at 30 mg/kg was found to be 42%. In assay [2], the half-maximal inhibitory concentration (IC50) was found to be 7 µM.

As to `CC(C)CC1(C(=O)Nc2ccccc2SC(=O)COc2ccc(Cl)cc2)CCCCC1` [Example 64], the inhibition at 30 mg/kg in assay [1] worked out at 34%. In addition, in assay [2], the concentration for half-maximal inhibition (IC50) amounted to 4 µM.

With `Cc1ccc(NC(=O)C2(CCC(C)C)CCCCC2)c(S)c1` [Example 24], in assay [1], the inhibition at 30 mg/kg was determined as 29%. For the same molecule, the IC50 in assay [2] turned out to be 29 µM.

For `CC(C)C1(C(=O)Nc2ccccc2S)CCCCC1` [Example 14], the inhibition at 30 mg/kg in assay [1] was 9%. Besides, the concentration for half-maximal inhibition (IC50) in assay [2] was determined as 8 µM.

Turning to `CC(C)CCC1(C(=O)Nc2cc(F)ccc2SC(=O)C(C)(C)C)CCCCC1` [Example 79], in assay [1], the inhibition at 10 mg/kg came out at 14% and the inhibition at 30 mg/kg amounted to 26%. Further, the IC50 in assay [2] was determined as 60 µM.

Consider `CC(C)CCC1(C(=O)Nc2ccccc2SC(=O)Cc2ccccc2)CCCC1` [Example 25-61], for which, in assay [1], the inhibition at 30 mg/kg came out at 28%. Moreover, in assay [2], the 50% inhibitory concentration (IC50) came out at 5 µM.

`CC(C)CCC1(C(=O)Nc2cc(F)c(F)cc2SC(=O)C(C)(C)C)CCCCC1` [Example 80]: in assay [1], the inhibition at 30 mg/kg came to 12%. The 50% inhibitory concentration (IC50) in assay [2] is 6 µM.

For the molecule `COc1ccc(SC(=O)C(C)(C)C)c(NC(=O)C2(CCC(C)C)CCCCC2)c1` [Example 78], the inhibition at 30 mg/kg in assay [1] worked out at 11%.

For the molecule `Cc1ccc(S)c(NC(=O)C2(CCC(C)C)CCCCC2)c1` [Example 22], in assay [1], the inhibition at 10 mg/kg came to 22% and the inhibition at 30 mg/kg came to 44%. The half-maximal inhibitory concentration (IC50) in assay [2] stood at 56 µM.

For the molecule `CC(=O)N[C@@H](Cc1ccccc1)C(=O)Sc1ccccc1NC(=O)C1(CCC(C)C)CCCCC1` [Example 34], the inhibition at 30 mg/kg in assay [1] was found to be 4%. For the same molecule, in assay [2], the IC50 is 9 µM.

Take `CC(C)CCC1(C(=O)Nc2ccccc2SC(=O)C2CCN(C)CC2)CCCCC1` [Example 25-53]: in assay [1], the inhibition at 30 mg/kg stood at 26%. For the same molecule, the IC50 in assay [2] was 7 µM.

As to `CC(C)CCC1(C(=O)Nc2cc(C(F)(F)F)ccc2SC(=O)C(C)(C)C)CCCCC1` [Example 52], in assay [1], the inhibition at 30 mg/kg is 8%. Moreover, in assay [2], the IC50 was determined as 8 µM.

`CC(=O)N[C@@H](CCC(N)=O)C(=O)Sc1ccccc1NC(=O)C1(CCC(C)C)CCCCC1` [Example 45]: in assay [1], the inhibition at 10 mg/kg is 18% and the inhibition at 30 mg/kg came out at 36%. The IC50 in assay [2] came out at 7 µM.
